Series [1] can be described thus: Measurement of absorbance retention (A1 in PBS / A0 in dimethyl sulfoxide). It counts as physicochemical. The following applies: A1/A0 at maximum-absorption wavelength; 2 μM in PBS vs 2 μM in dimethyl sulfoxide, within 5 minutes. How it is done: The absorbance retention calculated by Formula (I) is calculated as follows.
A colorant solution I is prepared by dissolving the colorant for fluorescent labeling in a soluble organic solvent so that the concentration is 2 μM. The absorption spectrum of the colorant solution I is measured using a spectrophotometer (U-4100, commercially available from Hitachi High-Tech Corporation), and the absorbance A0 at a maximum-absorption wavelength is determined.
In addition, a colorant dispersion II is prepared by dissolving the colorant for fluorescent labeling in a soluble organic solvent so that the concentration is 20 μM, and this is additionally diluted 10-fold with PBS so that the concentration is 2 μM. The absorption spectrum of the colorant dispersion II is measured using a spectrophotometer (U-4100, commercially available from Hitachi High-Tech Corporation), and the absorbance A1 at a maximum-absorption wavelength is determined. It is preferable to measure the absorbance under conditions at 25° C. In addition, it is desirable to measure the absorbance within 5 minutes after the […] is prepared. The colorant dispersion II can be obtained, for example, by diluting a colorant solution 10-fold with PBS at 25° C. and mixing by pipetting 10 times or more.
After each colorant solution was diluted 10-fold with dimethyl sulfoxide to obtain a colorant solution I with a colorant concentration of 2 μM, the absorption spectrum was measured using a spectrophotometer (U-4100, commercially available from Hitachi High-Tech Corporation), and the absorbance A0 at a maximum-absorption wavelength was obtained. In addition, after each colorant solution was diluted 10-fold with phosphate buffered saline (PBS) to obtain a colorant dispersion II with a colorant concentration of 2 μM, the absorption spectrum was measured immediately (within 5 minutes) using the spectrophotometer, and the absorbance A1 at a maximum-absorption wavelength was obtained. Using the obtained values of A0 and A1, the absorbance retention was calculated from Formula (I), and determined based on the following criteria.
• 4: absorbance retention 0.8 or more • 3: absorbance retention less than 0.8 to 0.5 or more • 2: absorbance retention less than 0.5 to 0.3 or more • 1: absorbance retention less than 0.3

A further series has as its system Hela cells. Briefly: Evaluation of cell staining: fluorescence intensity by plate reader. It counts as cell-based. The following applies: 1 μM colorant, 1 hour, washed, plate reader 780 to 800 nm. How it is done: Each colorant solution was diluted 20-fold with an Eagle's minimum essential medium (commercially available from FUJIFILM Wako Pure Chemical Corporation) to prepare a fluorescent labeling agent containing 1 μM of the colorant for fluorescent labeling.
Hela cells were seeded in a 96-well plate (1×10^4 cells/well), and cultured in an incubator (37° C., 5% CO2-containing Air, humidified environment) for 48 hours using an Eagle's minimum essential medium (commercially available from FUJIFILM Wako Pure Chemical Corporation) containing 10% Fetal Bovine Serum (FBS) and 1% penicillin-streptomycin. Then, the medium was removed, and the fluorescent labeling agent prepared above was added to each well. The sample was left in an incubator for 1 hour, and then washed with the Eagle's minimum essential medium (commercially available from FUJIFILM Wako Pure Chemical Corporation). Using a plate reader (SPARK, commercially available from Tecan Group Ltd.), the fluorescence intensity was measured in a range of 780 to 800 nm, and evaluated based on the following criteria. […] The evaluation results are shown in “fluorescence intensity during cell staining” in Table 8.
• 4: fluorescence intensity measurement value 2,000 or more • 3: fluorescence intensity measurement value less than 2,000 to 1,000 or more • 2: fluorescence intensity measurement value less than 1,000 to 500 or more • 1: fluorescence intensity measurement value less than 500

The nature of series [2]: Measurement of average particle size (Z average, dynamic light scattering) of colorant dispersed component in PBS dispersion. It counts as physicochemical. The following applies: 20 μM DMSO colorant solution diluted 10-fold with PBS to 2 μM, measured within 5 minutes. Here is the method:
The average particle size of the colorant dispersed component contained in the colorant dispersion I can be measured as follows.
A colorant solution is obtained by dissolving a colorant for fluorescent labeling in an organic solvent that can dissolve the colorant for fluorescent labeling so that the concentration is 20 μM. The colorant solution is diluted 10-fold with PBS and mixed to prepare a colorant dispersion I with a concentration of 2 μM.
Here, the method of mixing the colorant solution and the PBS is not particularly limited, and for example, a method of adding a colorant solution to PBS is preferable. Mixing may be performed separately in a plurality of steps. The method of mixing a colorant solution and PBS is not particularly limited, and a method that can quickly achieve a uniform mixing state is desirable. As an example of the mixing method, mixing can be performed by well-known methods such as stirring with a stirrer, pipetting with a pipette, and using a Vortex mixer. The colorant dispersion I can be obtained, for example, by diluting a colorant solution 10-fold with PBS at 25° C. and mixing by pipetting 10 times or more.
The particle size distribution of the colorant dispersion I obtained as above is measured using a particle size distribution measuring device (Zetasizer Nano ZSP, commercially available from Spectris). It is preferable to measure the average particle size under conditions at 25° C. It is desirable to measure the average particle size within 5 minutes after the colorant dispersion I is prepared.
As the value of the average particle size, values such as a Z average particle size, a number average particle size, a volume average particle size, and an area average particle size can be used. In the present invention, the Z average particle size measured by a dynamic light scattering method is defined as the average particle size of the colorant dispersed component contained in the colorant dispersion I.
After each colorant solution was diluted 10-fold with phosphate buffered saline (PBS) to obtain a colorant dispersion I with a colorant concentration of 2 μM, measurement was performed immediately (within 5 minutes) using a particle size distribution measuring device (Zetasizer Nano ZSP, commercially available from Spectris). The Z average particle size of the colorant fine particles (the colorant dispersed component in the colorant dispersion I) of each colorant for fluorescent labeling was determined based on the following criteria. The determination results are shown in “average particle size” in Table 8.
• 4: Z average particle size 5 nm or more to less than 100 nm • 3: Z average particle size 100 nm or more to less than 300 nm • 2: Z average particle size 300 nm or more to 500 nm or less • 1: Z average particle size more than 500 nm

Experimental findings from patent US20240376378A1, “COLORANT FOR FLUORESCENT LABELING AND FLUORESCENT LABELING AGENT” (artience Co., Ltd., priority 2021, published 2024) are described below.

For `O=C(O)CCOc1ccc(-c2cc3c(o2)=CC2=C(C(F)(F)F)c4cc5oc(-c6ccc(OCCC(=O)O)cc6)cc5n4[B-](F)(F)[N+]=32)cc1` [Colorant for fluorescent labeling 23], the Absorbance retention in series [1] is 4 (absorbance retention 0.8 or more). Further, in the series with Hela cells, the “Fluorescence intensity during cell staining” value is 4 (fluorescence intensity measurement value 2,000 or more). Also, the Average particle size in series [2] is reported as 3 (Z average particle size 100 nm or more to less than 300 nm).
Consider `O=P(O)(O)CCOc1ccc(-c2cc3c(o2)=CC2=C(C(F)(F)F)c4cc5oc(-c6ccc(OCCP(=O)(O)O)cc6)cc5n4[B-](F)(F)[N+]=32)cc1` [Colorant for fluorescent labeling 24], for which the Absorbance retention in series [1] is listed as 4 (absorbance retention 0.8 or more). Also, the “Fluorescence intensity during cell staining” value in the series on Hela cells is 4 (fluorescence intensity measurement value 2,000 or more). The Average particle size in series [2] is given as 3 (Z average particle size 100 nm or more to less than 300 nm).
As to `CCCCCCCCCCCCCCCCCCN1/C(=C/C=C/C=C/C=C/C2=[N+](CCCCCCCCCCCCCCCCCC)c3ccccc3C2(C)C)C(C)(C)c2ccccc21.[I-]` [Comparative compound 6], the Absorbance retention in series [1] is 2 (absorbance retention less than 0.5 to 0.3 or more). In the series on Hela cells, the “Fluorescence intensity during cell staining” value is recorded as 1 (fluorescence intensity measurement value less than 500). Besides, the Average particle size in series [2] is given as 2 (Z average particle size 300 nm or more to 500 nm or less).
On the same counts, the results for “Aluminum 1, 8, 15, 22-tetrakis(phenylthio)-29H, 31H-phthalocyanine chloride [Comparative compound 3]” are 1 (absorbance retention less than 0.3), 1 (fluorescence intensity measurement value less than 500) and 1 (Z average particle size more than 500 nm).
